Data as given in ChEMBL document CHEMBL4732135, “Structural and mechanistic insights into the inhibition of amyloid-β aggregation by Aβ fragment derived synthetic peptides” (Eur J Med Chem, 2021).
The source made the active and inactive calls. The calls are words filed in the database; no cut-off is given here. Square brackets hold non-standard residues; d marks the D form. Peptide text beside a SMILES is read from it. ξ: configuration not given here. Oic(3aξ,7aξ) = O=C(O)[C@@H]1CC2CCCCC2N1; Phe(4-F) = N[C@@H](Cc1ccc(F)cc1)C(=O)O; 1Nal = N[C@@H](Cc1cccc2ccccc12)C(=O)O; Tle = CC(C)(C)[C@H](N)C(=O)O

Key:
[1] = test system: PC-12; experiment: Neuroprotective activity against amyloid beta 42-induced toxicity in rat PC-12 cells assessed as cell viability at 4 uM measured after 6 hrs by MTT assay (reference value: 74.05%); type: functional; details: read-out: Activity
[2] = biological target: Amyloid-beta precursor protein (Homo sapiens) (UniProt P05067); experiment: Inhibition of amyloid beta (1 to 42) (unknown origin) assessed as reduction in peptide aggregation at 4 uM measured after 24 hrs by thioflavin-T fluorescence assay relative to control
[3] = biological target: Amyloid-beta precursor protein (Homo sapiens) (UniProt P05067); experiment: Binding affinity to amyloid beta (1 to 42) (unknown origin) assessed as absence of fibrillar assembly at 10 uM measured after 24 hrs by STEM analysis
[4] = biological target: Amyloid-beta precursor protein (Homo sapiens) (UniProt P05067); experiment: Inhibition of amyloid beta (1 to 42) (unknown origin) aggregation assessed as protein with turn conformation at 10 uM measured after 24 hrs by circular dichroism analysis (reference value: 11.6%); design: scale not given: the % may be the effect or the level left
[5] = biological target: Amyloid-beta precursor protein (Homo sapiens) (UniProt P05067); experiment: Inhibition of amyloid beta (1 to 42) (unknown origin) assessed as reduction in peptide aggregation at 2 uM measured after 24 hrs by thioflavin-T fluorescence assay relative to control
[6] = biological target: Amyloid-beta precursor protein (Homo sapiens) (UniProt P05067); experiment: Inhibition of amyloid beta (1 to 42) (unknown origin) assessed as reduction in peptide aggregation at 10 uM measured after 24 hrs by thioflavin-T fluorescence assay relative to control
[7] = biological target: Amyloid-beta precursor protein (Homo sapiens) (UniProt P05067); experiment: Inhibition of amyloid beta (1 to 42) (unknown origin) aggregation assessed as protein with beta sheet conformation at 10 uM measured after 24 hrs by circular dichroism analysis (reference value: 66.4%); design: scale not given: the % may be the effect or the level left
[8] = biological target: Amyloid-beta precursor protein (Homo sapiens) (UniProt P05067); experiment: Inhibition of amyloid beta (1 to 42) (unknown origin) aggregation assessed as protein with random coil conformation at 10 uM measured after 24 hrs by circular dichroism analysis (reference value: 5%); design: scale not given: the % may be the effect or the level left
[9] = test system: PC-12; experiment: Neuroprotective activity against amyloid beta 42-induced toxicity in rat PC-12 cells assessed as cell viability at 10 uM measured after 6 hrs by MTT assay (reference value: 74.05%); type: functional; details: read-out: Activity
[10] = test system: PC-12; experiment: Neuroprotective activity against amyloid beta 42-induced toxicity in rat PC-12 cells assessed as cell viability at 2 uM measured after 6 hrs by MTT assay (reference value: 74.05%); type: functional; details: read-out: Activity
[11] = biological target: Amyloid-beta precursor protein (Homo sapiens) (UniProt P05067); experiment: Binding affinity to amyloid beta (1 to 42) (unknown origin) assessed as absence of fibrillar assembly at 10 uM measured after 24 hrs by HR-TEM analysis
[12] = biological target: Amyloid-beta precursor protein (Homo sapiens) (UniProt P05067); experiment: Inhibition of amyloid beta (1 to 42) (unknown origin) aggregation assessed as relative fluorescence unit at 2 uM measured after 24 hrs by thioflavin-T fluorescence assay (reference value: 100%)
[13] = Stability of compound in serum (unknown origin) assessed as peptide cleavage at 5 uM measured after 24 hrs by MS analysis; type: ADME, cell-free
[14] = biological target: Amyloid-beta precursor protein (Homo sapiens) (UniProt P05067); experiment: Inhibition of amyloid beta (1 to 42) (unknown origin) assessed as reduction in peptide aggregation at 1 uM measured after 24 hrs by thioflavin-T fluorescence assay relative to control
[15] = Stability of compound in serum (unknown origin) at 5 uM measured up to 12 hrs by HPLC analysis; type: ADME, cell-free; details: read-out: Stabilty
[16] = biological target: Amyloid-beta precursor protein (Homo sapiens) (UniProt P05067); experiment: Disaggregation of preformed amyloid beta (1 to 42) (unknown origin) aggregation at 2 uM by thioflavin-T fluorescence assay; details: time 24-120 hrs, TDE = time-dependent effect
[17] = test system: PC-12; experiment: Cytotoxicity against rat PC-12 cells assessed as reduction in cell viability at 20 uM measured after 6 hrs by MTT assay; type: cell-based; details: pc-12, 6 h
[18] = test system: Cortical neurone; experiment: Neuroprotective activity against amyloid beta 42-induced toxicity in rat primary cortical neurons at 0.1 uM; type: functional, cell-based
[19] = biological target: Amyloid-beta precursor protein (Homo sapiens) (UniProt P05067); experiment: Binding affinity to amyloid beta (1 to 42) (unknown origin) assessed as amyloid beta (25 to 42)-adduct formation at 10 uM measured after 24 hrs by ESI-HRMS analysis
[20] = test system: PC-12; experiment: Neuroprotective activity against amyloid beta 42-induced toxicity in rat PC-12 cells assessed as cell viability at 1 uM measured after 6 hrs by MTT assay (reference value: 73.8%); type: functional; details: read-out: Activity
[21] = biological target: Amyloid-beta precursor protein (Homo sapiens) (UniProt P05067); experiment: Inhibition of amyloid beta (1 to 42) (unknown origin) assessed as reduction in peptide aggregation at 0.5 to 2 uM measured at 24 hrs interval for […] by thioflavin-T fluorescence assay; details: dose 0.5-2 µM
[22] = biological target: Amyloid-beta precursor protein (Homo sapiens) (UniProt P05067); experiment: Binding affinity to amyloid beta (1 to 42) (unknown origin) assessed as amyloid beta (2 to 42)-adduct formation at 10 uM measured after 24 hrs by ESI-HRMS analysis
[23] = biological target: Amyloid-beta precursor protein (Homo sapiens) (UniProt P05067); experiment: Inhibition of amyloid beta (1 to 42) (unknown origin) assessed as reduction in peptide aggregation at 0.5 uM measured after 24 hrs by thioflavin-T fluorescence assay relative to control
[24] = biological target: Amyloid-beta precursor protein (Homo sapiens) (UniProt P05067); experiment: Inhibition of amyloid beta (1 to 42) (unknown origin) aggregation at 2 uM measured after 24 hrs in presence of giant unilamellar vesicles by ANS dye based fluorescence assay
[25] = test system: PC-12; experiment: Neuroprotective activity against amyloid beta 42-induced toxicity in rat PC-12 cells assessed as cell viability at 0.5 uM measured after 6 hrs by MTT assay (reference value: 73.8%); type: functional; details: read-out: Activity
[26] = biological target: Amyloid-beta precursor protein (Homo sapiens) (UniProt P05067); experiment: Disaggregation of preformed amyloid beta (1 to 42) (unknown origin) aggregation at 1 uM measured at 24 hrs interval for 120 hrs by thioflavin-T fluorescence assay relative to control
[27] = biological target: Amyloid-beta precursor protein (Homo sapiens) (UniProt P05067); experiment: Disaggregation of preformed amyloid beta (1 to 42) (unknown origin) aggregation at 2 uM measured at 24 hrs interval for 120 hrs by thioflavin-T fluorescence assay relative to control
[28] = test system: Cortical neurone; experiment: Cytotoxicity against rat primary cortical neuron assessed as reduction in cell viability at 20 uM measured after 6 hrs by MTT assay; type: cell-based
[29] = test system: PC-12; experiment: Neuroprotective activity against amyloid beta 42-induced toxicity in rat PC-12 cells assessed as cell viability at 0.1 uM measured after 6 hrs by MTT assay (reference value: 73.8%); type: functional; details: read-out: Activity
[30] = biological target: Amyloid-beta precursor protein (Homo sapiens) (UniProt P05067); experiment: Inhibition of amyloid beta (1 to 42) (unknown origin) aggregation assessed as relative fluorescence unit at 10 uM measured after 24 hrs by thioflavin-T fluorescence assay (reference value: 100%)
[31] = biological target: Amyloid-beta precursor protein (Homo sapiens) (UniProt P05067); experiment: Inhibition of amyloid beta (1 to 42) (unknown origin) assessed as reduction in peptide aggregation at 0.1 uM measured after 24 hrs by thioflavin-T fluorescence assay relative to control
[32] = biological target: Amyloid-beta precursor protein (Homo sapiens) (UniProt P05067); experiment: Disaggregation of preformed amyloid beta (1 to 42) (unknown origin) aggregation at 0.5 uM measured at 24 hrs interval for 120 hrs by thioflavin-T fluorescence assay relative to control
[33] = biological target: Amyloid-beta precursor protein (Homo sapiens) (UniProt P05067); experiment: Inhibition of amyloid beta (1 to 42) (unknown origin) aggregation measured after 24 hrs by tyrosine fluorescence assay
[34] = biological target: Amyloid-beta precursor protein (Homo sapiens) (UniProt P05067); experiment: Disaggregation of preformed amyloid beta (1 to 42) (unknown origin) aggregation at 2 uM measured after 24 hrs by ANS dye based fluorescence assay
[35] = biological target: Amyloid-beta precursor protein (Homo sapiens) (UniProt P05067); experiment: Inhibition of amyloid beta (1 to 42) (unknown origin) aggregation at 2 uM measured after 24 hrs by ANS dye based fluorescence assay
[36] = biological target: Amyloid-beta precursor protein (Homo sapiens) (UniProt P05067); experiment: Inhibition of amyloid beta (1 to 42) (unknown origin) aggregation assessed as relative fluorescence unit at 4 uM measured after 24 hrs by thioflavin-T fluorescence assay (reference value: 100%)
[37] = Effective permeability of compound in pH 8 PBS buffer by PAMPA-BBB assay; type: ADME
[38] = test system: Cortical neurone; experiment: Neuroprotective activity against amyloid beta 42-induced toxicity in rat primary cortical neurons at 10 uM; type: functional, cell-based
[39] = biological target: Amyloid-beta precursor protein (Homo sapiens) (UniProt P05067); experiment: Binding affinity to amyloid beta (1 to 42) (unknown origin) at 10 uM measured after 24 hrs by ESI-HRMS analysis
[40] = biological target: Amyloid-beta precursor protein (Homo sapiens) (UniProt P05067); experiment: Binding affinity to amyloid beta (1 to 42) (unknown origin) assessed as amyloid beta (27 to 42)-adduct formation at 10 uM measured after 24 hrs by ESI-HRMS analysis

Amyloid-beta precursor protein (Homo sapiens), sequence (P05067 whole entry): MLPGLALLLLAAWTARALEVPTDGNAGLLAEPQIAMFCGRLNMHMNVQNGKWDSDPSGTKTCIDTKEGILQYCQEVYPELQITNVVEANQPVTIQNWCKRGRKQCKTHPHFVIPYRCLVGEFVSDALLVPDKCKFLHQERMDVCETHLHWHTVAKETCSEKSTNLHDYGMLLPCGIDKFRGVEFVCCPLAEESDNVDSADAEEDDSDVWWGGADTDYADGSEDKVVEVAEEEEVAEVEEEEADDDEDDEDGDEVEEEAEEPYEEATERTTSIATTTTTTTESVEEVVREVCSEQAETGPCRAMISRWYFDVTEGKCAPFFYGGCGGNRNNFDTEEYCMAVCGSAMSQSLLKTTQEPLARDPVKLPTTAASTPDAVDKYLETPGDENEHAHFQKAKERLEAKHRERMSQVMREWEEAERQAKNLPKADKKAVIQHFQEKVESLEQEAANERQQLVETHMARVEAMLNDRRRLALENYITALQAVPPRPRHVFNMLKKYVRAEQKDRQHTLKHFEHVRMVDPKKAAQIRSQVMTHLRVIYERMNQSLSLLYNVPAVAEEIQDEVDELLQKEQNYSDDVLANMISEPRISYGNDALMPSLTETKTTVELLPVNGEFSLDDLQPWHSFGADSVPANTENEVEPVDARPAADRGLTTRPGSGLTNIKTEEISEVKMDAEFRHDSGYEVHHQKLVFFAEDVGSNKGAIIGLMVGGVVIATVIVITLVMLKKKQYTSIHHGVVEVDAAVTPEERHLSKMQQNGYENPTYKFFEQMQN

Compound | viability at 4 µM [1] [%] | inhibition [2] [%] | Activity [3] | inhibition [5] [%] | inhibition [6] [%] | Activity [7] [%] | Activity [8] [%] | viability at 10 µM [9] [%] | viability at 2 µM [10] [%] | Activity [11] | RFU [12] [%] | inhibition [14] [%] | Activity [17] | viability at 1 µM [20] [%] | inhibition [23] [%] | viability at 0.5 µM [25] [%] | Activity [28] | viability at 0.1 µM [29] [%] | RFU [30] [%] | inhibition [31] [%] | also measured
CC[C@H](C)[C@H](NC(=O)[C@@H](NC(=O)[C@@H](N)Cc1cccc2ccccc12)C(C)C)C(=O)N[C@@H](C)C(=O)O (H-[1Nal]VIA-OH) | 73.2 | 23.8 | inactive | 34 | 29.1 | 18.7 | 31.6 | 70.6 | 77 | inactive | – | – | – | – | – | – | – | – | – | – | Activity [4]: 45.3%
CC[C@H](C)[C@H](NC(=O)[C@@H](NC(=O)[C@@H](N)Cc1ccc(F)cc1)C(C)C)C(=O)N[C@@H](C)C(=O)O (H-[Phe(4-F)]VIA-OH) | 100 | 97.5 | Active | 100 | 91.7 | 13.6 | 97.6 | 100 | 100 | Active | 53.1 | 83.1 | Non-Toxic | 97.2 | 81 | 83.1 | Non-Toxic | 79.3 | 57.2 | 79.9 | Stabilty [13]: Unstable; remaining at 12 h, 5 µM [15]: 90%; Activity [16]: Tde; Activity [18]: Active; Activity [19]: Active; inhibition [21]: Active; Activity [22]: Active; inhibition [24]: Active; inhibition [26]: 42.5%; inhibition [27]: 61%; inhibition [32]: 32.1%; inhibition [33]: Active; Activity [34]: Active; inhibition [35]: Active; RFU [36]: 54.5%; Peff [37]: Permeable
COc1cc(/C=C/C(=O)CC(=O)/C=C/c2ccc(O)c(OC)c2)ccc1O | – | – | – | – | – | – | – | – | – | – | – | – | – | – | – | – | – | – | – | – | Activity [38]: Active
CC[C@H](C)[C@H](NC(=O)[C@@H](NC(=O)[C@@H](N)C(C)(C)C)C(C)(C)C)C(=O)N[C@@H](C)C(=O)O (H-[Tle][Tle]IA-OH) | 100 | 97.4 | – | 100 | 95.3 | – | – | 100 | 100 | – | 51.2 | 51.8 | Non-Toxic | 97.6 | 41.3 | 94.5 | Non-Toxic | 91.2 | 55.5 | 34.4 | RFU [36]: 54.5%
Oc1ccc(/C=C/c2cc(O)cc(O)c2)cc1 | – | – | – | – | – | – | – | – | – | – | – | – | – | – | – | – | – | – | – | – | Activity [38]: Active
CC[C@H](C)[C@H](NC(=O)[C@@H]1CC2CCCCC2N1C(=O)[C@@H](N)C(C)C)C(=O)N[C@@H](C)C(=O)O (some centres undefined) (H-V[Oic(3aξ,7aξ)]IA-OH) | 100 | 100 | Active | 100 | 100 | 14.2 | 60 | 100 | 100 | Active | 53 | 74.8 | Non-Toxic | 92.3 | 68 | 80.5 | Non-Toxic | 84.9 | 53.2 | 61.2 | Stabilty [13]: Unstable; remaining at 12 h, 5 µM [15]: 90%; Activity [16]: Tde; Activity [18]: Active; inhibition [21]: Active; Activity [39]: Active; inhibition [24]: Active; inhibition [33]: Active; Activity [34]: Active; Activity [40]: Active; inhibition [35]: Active; RFU [36]: 53.3%; Peff [37]: Permeable
